Active and inactive are the calls of the source. The calls are words filed in the database; no cut-off is given here.
Columns and labels:
[1] = tested on: A549; assay: Antiproliferative activity against human A549 cells assessed as inhibition of cell growth by MTT assay; assay type: functional, cell-based
[2] = Toxicity in Balb/c mouse implanted with mouse 4T1 cells assessed as liver lesions at 50 mg/kg administered intratumorally every four days for 14 days in the presence of liquid cyanoacrylate by H&E staining based histopathological analysis; assay type: organism-based; conditions: in vivo, other, 336 h, route it(Intratumoral), time 14 day
[3] = tested on: MDA-MB-231; assay: Induction of apoptosis in human MDA-MB-231 cells assessed as deep cytoplasm at 1 uM incubated for 24 hrs by transmission electron microscopic analysis; assay type: functional, cell-based
[4] = tested on: 4T1; assay: Antitumor activity against mouse 4T1 cells xenografted in Balb/c mouse assessed as shrinkage of nucleus at 200 mg/kg administered topically over the tumor surface every two days for 14 days in the presence of cyanoacrylate; assay type: functional, organism-based; conditions: route top, time 14.0 day
[5] = tested on: MDA-MB-231; assay: Induction of apoptosis in human MDA-MB-231 cells assessed as decrease in Bcl-2 expression at 0.5 to 3 times of IC50 concentration by Western blot analysis; assay type: functional, cell-based
[6] = Toxicity in Balb/c mouse implanted with mouse 4T1 cells assessed as effect on body weight at 50 mg/kg administered intratumorally every four days for 14 days; assay type: organism-based; conditions: in vivo, other, 336 h, route it(Intratumoral), time 14 day
[7] = tested on: 4T1; assay: Antitumor activity against mouse 4T1 cells implanted in Balb/c mouse assessed as apoptotic rate of dissected tumor cell at 50 mg/kg administered intratumorally every four days for 14 days in the presence of liquid cyanoacrylate by flow cytometric analysis (reference value: 64.83%); assay type: functional; conditions: route it(Intratumoral), time 14 day
[8] = tested on: MDA-MB-231; assay: Induction of apoptosis in human MDA-MB-231 cells assessed as reduction in cell volume at 1 uM incubated for 24 hrs by transmission electron microscopic analysis; assay type: functional, cell-based
[9] = tested on: MDA-MB-231; assay: Induction of apoptosis in human MDA-MB-231 cells assessed as increase in caspase 3 expression at 0.5 to 3 times of IC50 concentration by Western blot analysis; assay type: functional, cell-based
[10] = Acute toxicity in mouse assessed as animal death at 5000 mg/kg, po; assay type: organism-based; conditions: in vivo
[11] = tested on: MDA-MB-231; assay: Induction of apoptosis in human MDA-MB-231 cells assessed as increase in Bax expression at 0.5 to 3 times of IC50 concentration by Western blot analysis; assay type: functional, cell-based
[12] = Toxicity in Balb/c mouse implanted with mouse 4T1 cells assessed as heart lesions at 50 mg/kg administered intratumorally every four days for 14 days in the presence of liquid cyanoacrylate by H&E staining based histopathological analysis; assay type: organism-based; conditions: in vivo, other, 336 h, route it(Intratumoral), time 14 day
[13] = tested on: MDA-MB-231; assay: Induction of apoptosis in human MDA-MB-231 cells assessed as increase in Bax protein expression at 1 uM incubated for 24 hrs by Western blot analysis; assay type: functional, cell-based
[14] = Toxicity in Balb/c mouse implanted with mouse 4T1 cells assessed as lung lesions at 50 mg/kg administered intratumorally every four days for 14 days by H&E staining based histopathological analysis; assay type: organism-based; conditions: in vivo, other, 336 h, route it(Intratumoral), time 14 day
[15] = tested on: 4T1; assay: Antitumor activity against mouse 4T1 cells implanted in Balb/c mouse assessed as TUNEL positive cells at 50 mg/kg, ip administered every two days for 14 days by TUNEL staining analysis (reference value: 6.55%); assay type: functional; conditions: time 14 day
[16] = tested on: MDA-MB-231; assay: Induction of apoptosis in human MDA-MB-231 cells assessed as increase in caspase 9 expression at 1 uM incubated for 24 hrs by Western blot analysis; assay type: functional, cell-based
[17] = tested on: 4T1; assay: Antitumor activity aginst mouse 4T1 cells implanted in Balb/c mouse assessed as nuclei disappearance at 50 mg/kg administered intratumorally every four days for 14 days; assay type: functional, organism-based; conditions: route it(Intratumoral), time 14.0 day
[18] = Toxicity in Balb/c mouse implanted with mouse 4T1 cells assessed as heart lesions at 50 mg/kg, ip administered every two days for 14 days by H&E staining based histopathological analysis; assay type: organism-based; conditions: in vivo, 336 h, time 14 day
[19] = tested on: MDA-MB-231; assay: Induction of apoptosis in human MDA-MB-231 cells assessed as nuclear chromatin condensation at 1 uM incubated for 24 hrs by transmission electron microscopic analysis; assay type: functional, cell-based
[20] = Acute toxicity in mouse assessed as death rate ratio at 300 mg/kg, ip measured over 14 days; assay type: organism-based; conditions: in vivo, 336 h, time 14 day
[21] = Toxicity in Balb/c mouse implanted with mouse 4T1 cells assessed as spleen lesions at 50 mg/kg administered intratumorally every four days for 14 days by H&E staining based histopathological analysis; assay type: organism-based; conditions: in vivo, other, 336 h, route it(Intratumoral), time 14 day
[22] = Toxicity in Balb/c mouse implanted with mouse 4T1 cells assessed as spleen lesions at 50 mg/kg administered intratumorally every four days for 14 days in the presence of liquid cyanoacrylate by H&E staining based histopathological analysis; assay type: organism-based; conditions: in vivo, other, 336 h, route it(Intratumoral), time 14 day
[23] = tested on: MDA-MB-231; assay: Induction of apoptosis in human MDA-MB-231 cells assessed as decrease in Bcl-2/Bax ratio at 0.5 to 3 times of IC50 concentration by Western blot analysis; assay type: functional, cell-based
[24] = Toxicity in Balb/c mouse implanted with mouse 4T1 cells assessed as lung lesions at 50 mg/kg, ip administered every two days for 14 days by H&E staining based histopathological analysis; assay type: organism-based; conditions: in vivo, 336 h, time 14 day
[25] = tested on: 4T1; assay: Antitumor activity against mouse 4T1 cells implanted in Balb/c mouse assessed as TUNEL positive cells at 50 mg/kg administered intratumorally every four days for 14 days by TUNEL staining analysis (reference value: 6.55%); assay type: functional; conditions: route it(Intratumoral), time 14 day
[26] = Toxicity in Balb/c mouse implanted with mouse 4T1 cells assessed as kidney lesions at 50 mg/kg administered intratumorally every four days for 14 days by H&E staining based histopathological analysis; assay type: organism-based; conditions: in vivo, other, 336 h, route it(Intratumoral), time 14 day
[27] = Toxicity in Balb/c mouse implanted with mouse 4T1 cells assessed as liver lesions at 50 mg/kg, ip administered every two days for 14 days by H&E staining based histopathological analysis; assay type: organism-based; conditions: in vivo, 336 h, time 14 day
[28] = tested on: 4T1; assay: Antitumor activity aginst mouse 4T1 cells implanted in Balb/c mouse assessed as nuclei disappearance at 50 mg/kg, ip administered every two days for 14 days; assay type: functional, organism-based; conditions: time 14.0 day
[29] = Acute toxicity in mouse assessed as lethal dose measured over 14 days; conditions: in vivo, 336 h, time 14 day
[30] = Toxicity in Balb/c mouse implanted with mouse 4T1 cells assessed as heart lesions at 50 mg/kg administered intratumorally every four days for 14 days by H&E staining based histopathological analysis; assay type: organism-based; conditions: in vivo, other, 336 h, route it(Intratumoral), time 14 day
[31] = tested on: 4T1; assay: Antitumor activity against mouse 4T1 cells xenografted in Balb/c mouse assessed as tumor growth inhibition at 200 mg/kg administered topically over the tumor surface every two days for 14 days in the presence of cyanoacrylate relative to control; assay type: functional; conditions: 4T1, 336 h, route top, time 14 day, read-out: TGI
[32] = tested on: MDA-MB-231; assay: Induction of apoptosis in human MDA-MB-231 cells assessed as increase in cytochrome C expression at 1 uM incubated for 24 hrs by Western blot analysis; assay type: functional, cell-based
[33] = Acute toxicity in mouse assessed as death rate ratio at 476 mg/kg, ip measured over 14 days; assay type: organism-based; conditions: in vivo, 336 h, time 14 day
[34] = tested on: 4T1; assay: Antitumor activity against mouse 4T1 cells xenografted in Balb/c mouse assessed as TUNEL positive cells at 200 mg/kg administered topically over the tumor surface every two days for 14 days in the presence of cyanoacrylate by TUNEL staining analysis (reference value: 21.78%); assay type: functional; conditions: route top, time 14 day
[35] = tested on: MDA-MB-231; assay: Induction of apoptosis in human MDA-MB-231 cells assessed as increase in catalase level at 100 nM incubated for 48 hrs; assay type: functional, cell-based

For `Cc1[nH]c2ccccc2c1C1=C(Cl)C(=O)C(Cl)=C(N2CCOCC2)C1=O`, the IC50 [1] was 210 nM, the Activity [2] was “Non-Toxic” and the Activity [3] was “Active”. For the same compound, the Activity [4] was “Active”, the Activity [5] was “Active” and the Activity [6] was “Non-Toxic”. The Activity [7] was 76.24%, the Activity [8] was “Active” and the Activity [9] was “Active”. For the same compound, the Activity [10] was “Non-Toxic”, the Activity [11] was “Active” and the Activity [12] was “Non-Toxic”. The Activity [13] was “Active”, the Activity [14] was “Non-Toxic” and the Activity [15] was 19.64%. For the same compound, the Activity [16] was “Active”, the Activity [17] was “Active” and the Activity [18] was “Non-Toxic”. For the same compound, the Activity [19] was “Active”, the Ratio [20] was 0.33 and the Activity [21] was “Non-Toxic”. The Activity [22] was “Non-Toxic”, the Activity [23] was “Active” and the Activity [24] was “Non-Toxic”. For the same compound, the Activity [25] was 91.48%, the Activity [26] was “Non-Toxic” and the Activity [27] was “Non-Toxic”. For the same compound, the Activity [28] was “Active”, the LD50 [29] was 374 mg/kg and the Activity [30] was “Non-Toxic”. For the same compound, the inhibition in vivo at 200 mg/kg [31] was 38%, the Activity [32] was “Active” and the Ratio [33] was 0.66. For the same compound, the Activity [34] was 64.71% and the Activity [35] was “Active”.
